# Measured values published in patent publication US10266526B2, “Substituted 1,2,3-triazoles as SMYD inhibitors for treating cancer” (EPIZYME, INC., priority 2014, dated 2019).
# Target: SMYD3 (Homo sapiens (Human), UniProt Q9H7B4)
# Experiment: SMYD3 biochemical assay (SMYD3 enzyme assay on MEKK2 protein substrate, 3H-SAM scintillation proximity assay)
# Conditions: read-out: SMYD3 Biochem IC50 (μM)*
# In short: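 Detection used scintillation proximity beads to capture ³H-methylated GST-MEKK2 after quench with 100 uM final cold SAM. The reaction was started by SAM/MEKK2 addition after a 30 min RT compound–enzyme preincubation. Enzyme was tag-free full-length human SMYD3 from E. coli, in buffer of 25 mM Tris-Cl pH 8.0, 1 mM TCEP, 0.005% BSG, 0.005% Tween 20.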
# Chain of SMYD3 (Q9H7B4 whole entry): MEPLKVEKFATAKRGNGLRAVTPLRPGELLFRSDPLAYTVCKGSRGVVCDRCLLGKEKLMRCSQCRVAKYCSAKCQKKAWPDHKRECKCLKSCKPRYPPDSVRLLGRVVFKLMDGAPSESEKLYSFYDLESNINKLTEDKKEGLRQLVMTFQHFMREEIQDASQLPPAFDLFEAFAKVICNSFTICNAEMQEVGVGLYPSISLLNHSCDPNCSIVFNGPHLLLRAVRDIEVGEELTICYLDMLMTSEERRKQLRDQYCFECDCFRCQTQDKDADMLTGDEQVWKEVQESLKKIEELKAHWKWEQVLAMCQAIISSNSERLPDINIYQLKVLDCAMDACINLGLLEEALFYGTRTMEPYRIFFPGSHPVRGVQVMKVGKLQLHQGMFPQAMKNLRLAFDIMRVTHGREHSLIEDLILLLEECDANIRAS
row,IC50 [µM],Structure (SMILES)
1,92.2,"CCOC(=O)CCCC(=O)N[C@H]1CC[C@H](N)CC1 [compound 108, ethyl 5-(((1r,4r)-4-aminocyclohexyl)amino)-5-oxopentanoate]"
2,150,"CCC1(C(=O)N[C@H]2CC[C@H](N)CC2)CCCN1 (stereo partly shown) [compound 111, N-((1r,4r)-4-aminocyclohexyl)-2-ethylpyrrolidine-2-carboxamide]"
3,61.2,"N[C@H]1CC[C@H](NC(=O)c2cccc3c2OCC(=O)N3)CC1 [compound 115, N-((1r,4r)-4-aminocyclohexyl)-3-oxo-3,4-dihydro-2H-benzo[b][1,4]oxazine-8-carboxamide]"
4,51,"N[C@H]1CC[C@H](NC(=O)c2cncc(Br)c2)CC1 [compound 116, N-((1r,4r)-4-aminocyclohexyl)-5-bromonicotinamide]"
5,87,"N[C@H]1CC[C@H](NC(=O)c2cncc(Cl)c2)CC1 [compound 117, N-((1r,4r)-4-aminocyclohexyl)-5-chloronicotinamide]"
6,139,"N[C@H]1CC[C@H](NC(=O)c2ccc3ncsc3c2)CC1 [compound 118, N-((1r,4r)-4-aminocyclohexyl)benzo[d]thiazole-6-carboxamide]"
7,116,"N[C@H]1CC[C@H](NC(=O)c2ccc3ccc(O)nc3c2)CC1 [compound 119, N-((1r,4r)-4-aminocyclohexyl)-2-hydroxyquinoline-7-carboxamide]"
8,108,"Nc1ccc(C(=O)N[C@H]2CC[C@H](N)CC2)cn1 [compound 123, 6-amino-N-((1r,4r)-4-aminocyclohexyl)nicotinamide]"
9,32,"N[C@H]1CC[C@H](NC(=O)c2cc(-n3cnnc3)ccc2Cl)CC1 [compound 126, N-((1r,4r)-4-aminocyclohexyl)-2-chloro-5-(4H-1,2,4-triazol-4-yl)benzamide]"
10,16.4,"N[C@H]1CC[C@H](NC(=O)c2nnc[nH]2)CC1 [compound 127, N-((1r,4r)-4-aminocyclohexyl)-4H-1,2,4-triazole-3-carboxamide]"
11,> 100,"N[C@H]1CC[C@H](NC(=O)Cc2cccnc2)CC1 [compound 129, N-((1r,4r)-4-aminocyclohexyl)-2-(pyridin-3-yl)acetamide]"
12,0.29,"NCCC(=O)NC1CCC(NC(=O)c2ccc3c(c2)CC(=O)N3)CC1 (stereo not shown) [compound 130, N-(4-(3-aminopropanamido)cyclohexyl)-2-oxoindoline-5-carboxamide]"
13,> 100,"Cc1nc(-c2ccc(C(=O)N[C@H]3CC[C@H](NC(=O)CCN)CC3)cc2)no1 [compound 136, N-((1r,4r)-4-(3-aminopropanamido)cyclohexyl)-4-(5-methyl-1,2,4-oxadiazol-3-yl)benzamide]"
14,46.6,"Cc1nc(-c2ccc(C(=O)N[C@H]3CC[C@H](N)CC3)cc2)no1 [compound 137, N-((1r,4r)-4-aminocyclohexyl)-4-(5-methyl-1,2,4-oxadiazol-3-yl)benzamide]"
15,> 100,"N[C@H]1CC[C@H](NC(=O)c2ccncc2)CC1 [compound 140, N-((1r,4r)-4-aminocyclohexyl)isonicotinamide]"
16,> 100,"CC(NC(=O)c1cccnc1)C1CCN(C(=O)[C@H](C)N)CC1 (stereo partly drawn) [compound 141, N-(1-(1-(L-alanyl)piperidin-4-yl)ethyl)nicotinamide]"
17,> 100,"NCCC(=O)N[C@H]1CC[C@H](NC(=O)c2cccnc2)CC1 [compound 142, N-((1r,4r)-4-(3-aminopropanamido)cyclohexyl)nicotinamide]"
18,> 100,"N[C@H]1CC[C@H](NC(=O)c2cccnc2)CC1 [compound 143, N-((1r,4r)-4-aminocyclohexyl)nicotinamide]"
19,> 100,"NCCC(=O)N[C@H]1CC[C@H](NC(=O)c2ncccn2)CC1 [compound 145, N-((1r,4r)-4-(3-aminopropanamido)cyclohexyl)pyrimidine-2-carboxamide]"
20,98.2,"NCCC(=O)N[C@H]1CC[C@H](NC(=O)c2ccc3c(c2)OCO3)CC1 [compound 147, N-((1r,4r)-4-(3-aminopropanamido)cyclohexyl)benzo[d][1,3]dioxole-5-carboxamide]"
21,> 100,"N[C@H]1CC[C@H](NC(=O)c2ccc3c(c2)OCO3)CC1 [compound 148, N-((1r,4r)-4-aminocyclohexyl)benzo[d][1,3]dioxole-5-carboxamide]"
22,> 100,"CS(=O)(=O)c1cccc(C(=O)N[C@H]2CC[C@H](NC(=O)CCN)CC2)c1 [compound 150, N-((1r,4r)-4-(3-aminopropanamido)cyclohexyl)-3-(methylsulfonyl)benzamide]"

# The next lines start with the compound.
row,Structure (SMILES),IC50 [µM]
1,"N[C@@H](Cc1ccc(O)cc1)C(=O)N1CCC(CNC(=O)c2ccc3c(c2)CC(=O)N3)CC1 [compound 102, N-((1-(L-tyrosyl)piperidin-4-yl)methyl)-2-oxoindoline-5-carboxamide]",1.86
2,"N[C@@H](Cc1c[nH]c2ccccc12)C(=O)N1CCC(CNC(=O)c2ccc3c(c2)CC(=O)N3)CC1 [compound 103, N-((1-(L-tryptophyl)piperidin-4-yl)methyl)-2-oxoindoline-5-carboxamide]",2.74
3,"CCOC(=O)C(NC(=O)c1ccc2c(c1)CC(=O)N2)C1CCN(C(=O)[C@H](C)N)CC1 (stereo partly drawn) [compound 104, ethyl 2-(1-(L-alanyl)piperidin-4-yl)-2-(2-oxoindoline-5-carboxamido)acetate]",1.51
4,"O=C1Cc2cc(C(=O)NCC3(O)CCNCC3)ccc2N1 [compound 105, N-((4-hydroxypiperidin-4-yl)methyl)-2-oxoindoline-5-carboxamide]",40.4
5,"NCCCCNC(=O)c1ccc2c(c1)CC(=O)N2 [compound 106, N-(4-aminobutyl)-2-oxoindoline-5-carboxamide]",13.4
6,"C[C@H](N)C(=O)NCCCCNC(=O)c1ccc2c(c1)CC(=O)N2 [compound 107, (S)-N-(4-(2-aminopropanamido)butyl)-2-oxoindoline-5-carboxamide]",14
7,"CC(CN1CCCC1)C(=O)NC(c1ccccc1)C1CCNCC1 (stereo not shown) [compound 109, 2-methyl-N-(phenyl(piperidin-4-yl)methyl)-3-(pyrrolidin-1-yl)propanamide]",79
8,"Cc1cc2[nH]c(C(=O)NC(c3ccccc3)C3CCNCC3)cc2o1 (stereo not shown) [compound 110, 2-methyl-N-(phenyl(piperidin-4-yl)methyl)-4H-furo[3,2-b]pyrrole-5-carboxamide]",82.8
9,"C[C@H](N)C(=O)N1CCC(O)(CNC(=O)c2ccc3c(c2)CC(=O)N3)CC1 [compound 112, N-((1-(L-alanyl)-4-hydroxypiperidin-4-yl)methyl)-2-oxoindoline-5-carboxamide]",3.04
10,"C[C@H](N)C(=O)N1CCC(F)(CNC(=O)c2ccc3c(c2)CC(=O)N3)CC1 [compound 113, N-((1-(L-alanyl)-4-fluoropiperidin-4-yl)methyl)-2-oxoindoline-5-carboxamide]",3.86
11,"C[C@@H](N)C(=O)NCCCCNC(=O)c1ccc2c(c1)CC(=O)N2 [compound 114, (R)-N-(4-(2-aminopropanamido)butyl)-2-oxoindoline-5-carboxamide]",22.3
12,"CC(NC(=O)c1ccc2ccc(O)nc2c1)C1CCN(C(=O)[C@H](C)N)CC1 (stereo partly drawn) [compound 120, N-(1-(1-(L-alanyl)piperidin-4-yl)ethyl)-2-hydroxyquinoline-7-carboxamide]",86.9
13,"CC1(CNC(=O)c2ccc3c(c2)CC(=O)N3)CCNCC1 [compound 121, N-((4-methylpiperidin-4-yl)methyl)-2-oxoindoline-5-carboxamide]",65.7
14,"CCOC(=O)C(NC(=O)c1ccc2c(c1)CC(=O)N2)C1CCNCC1 (stereo not shown) [compound 122, ethyl 2-(2-oxoindoline-5-carboxamido)-2-(piperidin-4-yl)acetate]",42.3
15,"CCOC(=O)C1(CNC(=O)c2ccc3c(c2)CC(=O)N3)CCNCC1 [compound 131, ethyl 4-((2-oxoindoline-5-carboxamido)methyl)piperidine-4-carboxylate]",56.3
16,"CCOC(=O)C1(CNC(=O)c2ccc3c(c2)CC(=O)N3)CCN(C(=O)[C@H](C)N)CC1 [compound 132, ethyl 1-(L-alanyl)-4-((2-oxoindoline-5-carboxamido)methyl)piperidine-4-carboxylate]",0.94
17,"C[C@@H](N)C(=O)N1CC[C@@H](CNC(=O)c2ccc3c(c2)CC(=O)N3)C1 [compound 133, N-(((S)-1-(D-alanyl)pyrrolidin-3-yl)methyl)-2-oxoindoline-5-carboxamide]",10.7
18,"C[C@H](N)C(=O)N1CC[C@@H](CNC(=O)c2ccc3c(c2)CC(=O)N3)C1 [compound 134, N-(((S)-1-(L-alanyl)pyrrolidin-3-yl)methyl)-2-oxoindoline-5-carboxamide]",10.2
19,"C[C@H](N)C(=O)N1CC[C@H](CNC(=O)c2ccc3c(c2)CC(=O)N3)C1 [compound 135, N-(((R)-1-(L-alanyl)pyrrolidin-3-yl)methyl)-2-oxoindoline-5-carboxamide]",13.6
20,"CC(NC(=O)c1ccncc1)C1CCN(C(=O)[C@H](C)N)CC1 (stereo partly drawn) [compound 138, N-(1-(1-(L-alanyl)piperidin-4-yl)ethyl)isonicotinamide]",> 100
21,"NCCC(=O)N[C@H]1CC[C@H](NC(=O)c2ccncc2)CC1 [compound 139, N-((1r,4r)-4-(3-aminopropanamido)cyclohexyl)isonicotinamide]",> 100
22,"CC(NC(=O)c1ncccn1)C1CCN(C(=O)[C@H](C)N)CC1 (stereo partly drawn) [compound 144, N-(1-(1-(L-alanyl)piperidin-4-yl)ethyl)pyrimidine-2-carboxamide]",> 100
23,"CC(NC(=O)c1ccc2c(c1)OCO2)C1CCN(C(=O)[C@H](C)N)CC1 (stereo partly drawn) [compound 146, N-(1-(1-(L-alanyl)piperidin-4-yl)ethyl)benzo[d][1,3]dioxole-5-carboxamide]",> 100
24,"CC(NC(=O)c1cccc(S(C)(=O)=O)c1)C1CCN(C(=O)[C@H](C)N)CC1 (stereo partly drawn) [compound 149, N-(1-(1-(L-alanyl)piperidin-4-yl)ethyl)-3-(methylsulfonyl)benzamide]",> 100
